Common to all, as to experiment: SelectScreen Kinase Profiling, single point inhibition and IC50 for off-target kinases
What all share (type): biochemical

Test [1] has as its target off-target kinases (Homo sapiens, UniProt P36888, D835Y). Particulars: FLT3 D835Y, ATP Km app, ZLYTE.
Test [2] has as its target T1, off-target kinases (Homo sapiens, UniProt P54753).
T1 sequence (P54753 34-998): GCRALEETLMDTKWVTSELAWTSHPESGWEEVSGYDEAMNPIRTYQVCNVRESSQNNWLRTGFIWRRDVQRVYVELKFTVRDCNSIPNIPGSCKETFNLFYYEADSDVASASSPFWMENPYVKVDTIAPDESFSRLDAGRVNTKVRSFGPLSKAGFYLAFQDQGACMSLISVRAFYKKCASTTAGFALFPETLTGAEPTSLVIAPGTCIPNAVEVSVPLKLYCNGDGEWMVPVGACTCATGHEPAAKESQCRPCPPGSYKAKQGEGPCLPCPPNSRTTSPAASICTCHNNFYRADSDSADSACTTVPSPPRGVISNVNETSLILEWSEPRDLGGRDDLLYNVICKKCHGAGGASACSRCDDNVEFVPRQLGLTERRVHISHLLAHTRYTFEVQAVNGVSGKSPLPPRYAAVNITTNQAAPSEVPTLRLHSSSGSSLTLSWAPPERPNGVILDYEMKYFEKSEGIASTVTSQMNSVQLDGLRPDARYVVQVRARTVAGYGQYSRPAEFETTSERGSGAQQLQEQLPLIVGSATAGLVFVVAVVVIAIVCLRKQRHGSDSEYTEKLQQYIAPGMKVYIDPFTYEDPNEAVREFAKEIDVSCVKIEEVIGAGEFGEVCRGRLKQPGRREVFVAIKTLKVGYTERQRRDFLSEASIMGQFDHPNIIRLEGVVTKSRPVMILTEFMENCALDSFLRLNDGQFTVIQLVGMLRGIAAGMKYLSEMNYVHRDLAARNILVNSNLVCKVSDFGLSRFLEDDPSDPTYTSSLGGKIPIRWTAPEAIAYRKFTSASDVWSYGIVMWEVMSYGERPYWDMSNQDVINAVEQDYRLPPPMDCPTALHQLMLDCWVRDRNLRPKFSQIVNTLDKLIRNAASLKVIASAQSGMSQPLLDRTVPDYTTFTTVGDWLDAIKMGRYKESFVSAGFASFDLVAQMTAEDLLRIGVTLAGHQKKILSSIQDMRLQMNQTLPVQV
Particulars: EPHB3, ZLYTE, ATP Km app.

The test system of test [3] is off-target kinases.

The structures appear in SMILES notation. Where two headings read alike, the source gives them in different places.

By inhibition is commonly meant the change of the read-out against control, counted positive when it falls. For `N#Cc1cc(-c2ncnc(Nc3ccc(N4CCN(C5COC5)CC4)cc3)n2)ccc1OC1CCOCC1` [Compound 1, 5-(4-((4-(4-(oxetan-3-yl)piperazin-1-yl)phenyl)amino)-1,3,5-triazin-2-yl)-2-((tetrahydro-2H-pyran-4-yl)oxy)benzonitrile], the inhibition at off-target kinases [1] (read-out: % Inhibition 1) worked out at 83%; at off-target kinases [1] (read-out: % Inhibition 2) it was 81%; on off-target kinases [1] (read-out: % Inhibition Avg), 82%; on off-target kinases [2] (read-out: % Inhibition 1) it was 3%; at off-target kinases [2] (read-out: % Inhibition 2) it was 3%; on off-target kinases [2] (read-out: % Inhibition Avg) it was 3%. Further, the JAK inhibitory activity result with off-target kinases [3] is recorded as “lacks JAK inhibitory activity”.

These data come from patent US11572590B2, “Methods for evaluating tumor cell spheroids using 3D microfluidic cell culture device” (Dana-Farber Cancer Institute, Inc., priority 2017, dated 2023).
